For two compounds, IC50 results are on record in publication PMC6911642 (Cancer research, 2019).

The target of one assay is T1, PERK (Rattus norvegicus, UniProt Q9Z1Z1).
T1 sequence (Q9Z1Z1 28-1108): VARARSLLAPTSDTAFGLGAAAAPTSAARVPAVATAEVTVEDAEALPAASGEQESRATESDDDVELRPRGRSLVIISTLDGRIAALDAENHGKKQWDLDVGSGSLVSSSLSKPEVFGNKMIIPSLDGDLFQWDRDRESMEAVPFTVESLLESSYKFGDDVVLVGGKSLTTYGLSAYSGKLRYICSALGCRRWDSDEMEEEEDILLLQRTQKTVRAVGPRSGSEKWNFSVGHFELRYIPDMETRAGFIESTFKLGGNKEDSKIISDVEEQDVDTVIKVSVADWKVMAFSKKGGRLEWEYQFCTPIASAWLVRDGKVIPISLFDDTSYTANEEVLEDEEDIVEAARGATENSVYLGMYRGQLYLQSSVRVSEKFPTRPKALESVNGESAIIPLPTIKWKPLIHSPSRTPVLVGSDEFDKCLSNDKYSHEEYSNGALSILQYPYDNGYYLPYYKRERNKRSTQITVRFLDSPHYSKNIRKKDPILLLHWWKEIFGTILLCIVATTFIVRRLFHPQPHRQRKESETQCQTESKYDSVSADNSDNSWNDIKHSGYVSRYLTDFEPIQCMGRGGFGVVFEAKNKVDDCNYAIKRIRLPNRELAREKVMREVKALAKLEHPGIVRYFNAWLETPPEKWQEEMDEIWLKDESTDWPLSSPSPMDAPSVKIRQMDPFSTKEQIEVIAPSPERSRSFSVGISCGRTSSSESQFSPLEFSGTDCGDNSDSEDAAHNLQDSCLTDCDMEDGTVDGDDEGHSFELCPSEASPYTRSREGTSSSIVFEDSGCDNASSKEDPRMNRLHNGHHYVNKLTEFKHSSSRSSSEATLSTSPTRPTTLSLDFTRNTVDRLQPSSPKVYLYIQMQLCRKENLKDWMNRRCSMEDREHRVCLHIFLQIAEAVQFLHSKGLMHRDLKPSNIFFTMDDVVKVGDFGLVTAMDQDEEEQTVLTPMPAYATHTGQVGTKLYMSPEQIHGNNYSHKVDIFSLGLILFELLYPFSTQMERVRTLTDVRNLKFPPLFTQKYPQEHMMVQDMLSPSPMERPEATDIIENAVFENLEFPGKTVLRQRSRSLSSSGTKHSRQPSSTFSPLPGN
The assay can be described thus: Inhibition of PERK autophosphorylation. In kind it is cell-based.

The target in the next assay is IRE1α (Rattus norvegicus, UniProt A0A4Y1YQ52). The assay can be described thus: Inhibition of IRE1α RNase output. The format is cell-based.
IRE1α, sequence (A0A4Y1YQ52 21-977): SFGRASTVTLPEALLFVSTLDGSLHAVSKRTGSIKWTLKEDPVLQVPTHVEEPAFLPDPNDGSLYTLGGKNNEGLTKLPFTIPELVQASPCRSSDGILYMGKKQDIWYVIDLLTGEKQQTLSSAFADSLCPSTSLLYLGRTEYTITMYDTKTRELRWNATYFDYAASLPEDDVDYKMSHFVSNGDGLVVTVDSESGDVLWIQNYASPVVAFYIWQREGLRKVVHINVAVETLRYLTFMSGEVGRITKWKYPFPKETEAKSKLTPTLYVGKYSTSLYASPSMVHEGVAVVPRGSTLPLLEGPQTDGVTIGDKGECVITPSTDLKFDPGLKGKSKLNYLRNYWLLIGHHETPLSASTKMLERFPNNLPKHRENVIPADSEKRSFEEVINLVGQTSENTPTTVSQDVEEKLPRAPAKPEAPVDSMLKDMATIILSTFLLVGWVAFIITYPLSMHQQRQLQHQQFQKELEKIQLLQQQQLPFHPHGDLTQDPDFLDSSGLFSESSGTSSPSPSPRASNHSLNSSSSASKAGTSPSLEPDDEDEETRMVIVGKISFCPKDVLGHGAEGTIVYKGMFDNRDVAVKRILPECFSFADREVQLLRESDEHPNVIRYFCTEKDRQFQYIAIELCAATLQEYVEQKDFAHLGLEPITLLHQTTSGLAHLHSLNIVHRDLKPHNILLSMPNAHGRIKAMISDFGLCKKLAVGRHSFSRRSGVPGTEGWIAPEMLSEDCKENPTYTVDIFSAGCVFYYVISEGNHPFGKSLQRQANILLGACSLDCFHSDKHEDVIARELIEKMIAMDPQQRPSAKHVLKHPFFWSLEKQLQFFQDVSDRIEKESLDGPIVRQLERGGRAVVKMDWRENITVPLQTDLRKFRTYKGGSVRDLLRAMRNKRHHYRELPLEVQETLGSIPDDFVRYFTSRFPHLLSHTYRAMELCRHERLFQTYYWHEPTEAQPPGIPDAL

Regarding `Cc1cccc(CC(=O)N2CCc3c2ccc(-c2cn(C)c4ncnc(N)c24)c3F)n1` [GSK2656157], the IC50 on PERK was approximately 125 nM. For the compound `Cc1ccc2c(NS(=O)(=O)c3ccccc3Cl)cccc2c1Oc1ncccc1-c1ccnc(N[C@H]2CCCNC2)n1` [KIRA8], the IC50 at IRE1α was approximately 125 nM.

For orientation: IC50 means the concentration that inhibits the measured activity by half. Lower therefore signals higher potency.
